Assay [1] addresses T1, Sodium-dependent dopamine transporter (Homo sapiens, UniProt Q01959). Nature of the assay: Displacement of [3H]WIN-35 from DAT at 1 uM. (In general: Displacement assays read how much labelled ligand stays bound in the presence of the test substance.)
Assay [2] has as its target Sodium-dependent noradrenaline transporter (Homo sapiens, UniProt P23975). Description: Displacement of [3H]nisoxetine from NET.
Assay [3] concerns the target Sodium-dependent serotonin transporter (Homo sapiens, UniProt P31645). Nature of the assay: Displacement of [3H]citalopram from SERT.
In assay [4] the target is T1, Sodium-dependent dopamine transporter. Description: Displacement of [3H]WIN-35 from DAT.

The results in this text go back to ChEMBL document CHEMBL1147706, “N-Alkyl-N-arylmethylpiperidin-4-amines: novel dual inhibitors of serotonin and norepinephrine reuptake” (Bioorg Med Chem Lett, 2006).

A word on the inhibition: it is the drop in the measured response relative to a control, in per cent. Broadly, the Ki is a measure of affinity in units of concentration, obtained from inhibition or displacement. Higher therefore signals lower affinity.

T1 sequence (Q01959 whole entry): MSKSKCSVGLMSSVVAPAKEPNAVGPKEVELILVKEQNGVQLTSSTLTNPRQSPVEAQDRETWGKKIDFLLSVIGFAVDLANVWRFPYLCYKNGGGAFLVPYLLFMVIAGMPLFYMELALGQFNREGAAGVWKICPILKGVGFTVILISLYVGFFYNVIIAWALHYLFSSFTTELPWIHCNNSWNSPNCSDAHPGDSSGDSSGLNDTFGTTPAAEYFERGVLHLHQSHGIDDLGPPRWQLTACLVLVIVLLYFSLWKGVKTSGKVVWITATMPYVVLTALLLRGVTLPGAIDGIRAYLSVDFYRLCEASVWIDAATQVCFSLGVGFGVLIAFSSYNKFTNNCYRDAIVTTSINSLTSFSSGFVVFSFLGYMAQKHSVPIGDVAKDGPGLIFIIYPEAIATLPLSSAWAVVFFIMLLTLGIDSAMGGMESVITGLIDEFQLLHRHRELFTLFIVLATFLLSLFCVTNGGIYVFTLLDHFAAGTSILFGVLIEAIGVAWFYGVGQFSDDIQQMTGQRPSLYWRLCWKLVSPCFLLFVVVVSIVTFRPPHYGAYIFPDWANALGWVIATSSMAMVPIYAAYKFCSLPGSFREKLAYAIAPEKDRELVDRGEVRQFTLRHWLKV
Sodium-dependent noradrenaline transporter, sequence (P23975 whole entry): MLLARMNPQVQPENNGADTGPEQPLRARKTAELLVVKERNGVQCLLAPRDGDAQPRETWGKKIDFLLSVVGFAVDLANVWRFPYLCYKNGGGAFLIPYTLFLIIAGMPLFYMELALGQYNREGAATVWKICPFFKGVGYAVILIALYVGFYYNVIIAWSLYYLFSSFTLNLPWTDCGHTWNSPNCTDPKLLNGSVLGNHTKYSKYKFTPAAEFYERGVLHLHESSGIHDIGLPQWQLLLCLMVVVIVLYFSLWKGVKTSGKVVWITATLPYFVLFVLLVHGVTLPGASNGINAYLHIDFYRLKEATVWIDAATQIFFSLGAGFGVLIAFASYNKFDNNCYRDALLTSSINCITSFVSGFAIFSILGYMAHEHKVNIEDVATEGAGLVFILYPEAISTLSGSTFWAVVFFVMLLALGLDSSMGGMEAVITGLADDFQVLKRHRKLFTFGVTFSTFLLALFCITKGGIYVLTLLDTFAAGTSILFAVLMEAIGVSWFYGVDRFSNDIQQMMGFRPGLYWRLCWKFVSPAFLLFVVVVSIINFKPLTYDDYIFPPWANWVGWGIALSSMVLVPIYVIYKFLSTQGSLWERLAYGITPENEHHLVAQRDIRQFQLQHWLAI
Sodium-dependent serotonin transporter, sequence (P31645 whole entry): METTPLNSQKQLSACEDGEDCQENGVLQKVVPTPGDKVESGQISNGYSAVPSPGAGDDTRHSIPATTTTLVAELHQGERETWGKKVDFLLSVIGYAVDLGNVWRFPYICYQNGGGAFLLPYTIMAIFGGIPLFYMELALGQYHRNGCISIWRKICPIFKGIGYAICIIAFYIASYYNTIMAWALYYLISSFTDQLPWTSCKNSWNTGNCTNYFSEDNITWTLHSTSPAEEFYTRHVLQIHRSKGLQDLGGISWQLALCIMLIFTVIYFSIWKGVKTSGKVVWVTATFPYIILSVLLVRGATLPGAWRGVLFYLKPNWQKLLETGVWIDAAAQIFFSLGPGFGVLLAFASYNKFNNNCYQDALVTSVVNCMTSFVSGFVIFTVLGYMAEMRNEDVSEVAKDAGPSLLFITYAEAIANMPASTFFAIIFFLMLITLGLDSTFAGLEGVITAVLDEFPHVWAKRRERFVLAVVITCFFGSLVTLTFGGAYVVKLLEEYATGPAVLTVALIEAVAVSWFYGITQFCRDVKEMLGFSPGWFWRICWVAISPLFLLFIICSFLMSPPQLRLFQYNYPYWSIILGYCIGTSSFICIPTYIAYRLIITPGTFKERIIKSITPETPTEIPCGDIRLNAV

Consider `COCCCN(Cc1ccc(F)cc1C(F)(F)F)C1CCNCC1`, for which the inhibition in assay [1] is -7%. The Ki in assay [2] was found to be 5.4 nM; in assay [3], 1.1 nM.

`COCCN(Cc1ccccc1C(F)(F)F)C1CCNCC1`: the inhibition in assay [1] was 4%. The Ki in assay [2] was 8.3 nM; in assay [3], 2.5 nM.

For the compound `CC(C)CN(Cc1ccccc1C#N)C1CCNCC1`, the figures for the Ki in assay [2] and in assay [3] were 42 nM and 1.2 nM, respectively.

For the compound `CC(C)CN(Cc1ccc(F)cc1)C1CCNCC1`, the inhibitory constant (Ki) in assay [2] amounted to 78 nM; in assay [3], 1.9 nM; in assay [4], 200 nM.

As to `FC(F)(F)CCN(Cc1ccccc1C(F)(F)F)C1CCNCC1`, the Ki in assay [2] came out at 9.8 nM; in assay [3] it was 2.8 nM.

As to `CC(C)CN(Cc1ccc(F)cc1C(F)(F)F)C1CCNCC1`, the inhibition constant Ki worked out at 1.8 nM in assay [2], 0.3 nM in assay [3] and 190 nM in assay [4].

As to `COc1ccc(CN(CC(C)C)C2CCNCC2)c(OC)c1`, in assay [1], the inhibition turned out to be 1.8%. Also, the Ki in assay [2] stood at 1060 nM; in assay [3] it was 2.2 nM.

Regarding `CC(C)(C#N)CCN(Cc1ccc(F)cc1C(F)(F)F)C1CCNCC1`, the Ki in assay [2] was found to be 6.2 nM; in assay [3] it was 0.7 nM.

Take `CCC(CC)CN(Cc1ccccc1C(F)(F)F)C1CCNCC1`: the figures for the inhibition constant (Ki) in assay [2] and in assay [3] were 6.1 nM and 6.9 nM, respectively.

For `CC(C)(C)CN(Cc1ccccc1C(F)(F)F)C1CCNCC1`, the Ki in assay [2] came out at 2.7 nM; in assay [3] it was 4.3 nM; in assay [4] it was 160 nM.

Regarding `N#CCCCN(Cc1ccccc1C(F)(F)F)C1CCNCC1`, the Ki in assay [2] was 21 nM; in assay [3] it was 0.58 nM.

With `CC(C)CN(Cc1ccccc1F)C1CCNCC1`, the Ki in assay [2] is 15 nM; in assay [4], 330 nM.

Consider `CCCN(Cc1ccccc1C(F)(F)F)C1CCNCC1`, for which the Ki in assay [2] was found to be 6.5 nM; in assay [3], 2.2 nM.

Turning to `CCCCN(Cc1ccc(F)cc1C(F)(F)F)C1CCNCC1`, the Ki came to 8.3 nM in assay [2] and 1.3 nM in assay [3].

Regarding `CC(C)CN(Cc1c(F)cccc1C(F)(F)F)C1CCNCC1`, the results for the inhibition constant Ki in assay [2] and in assay [3] were 6 nM and 4.1 nM, respectively.

For `Cc1ccc(CN(CC(C)C)C2CCNCC2)c(C)c1`, the results for the Ki in assay [2] and in assay [3] were 4.8 nM and 0.39 nM, respectively.

Consider `N#CCCN(Cc1ccc(F)cc1C(F)(F)F)C1CCNCC1`, for which the inhibition in assay [1] is -4%. Further, the inhibition constant Ki in assay [2] stood at 13.3 nM; in assay [3], 0.4 nM.

With `CCOCCN(Cc1ccc(F)cc1C(F)(F)F)C1CCNCC1`, the inhibition in assay [1] is -3%. Further, the Ki in assay [2] came to 9.6 nM; in assay [3] it was 2.8 nM.

In the case of `CC(C)(O)CN(Cc1ccc(F)cc1C(F)(F)F)C1CCNCC1`, the inhibition in assay [1] was -8%. Further, the values for the Ki in assay [2] and in assay [3] were 4.2 nM and 4 nM, respectively.

Regarding `CSc1ccccc1CN(CC(C)C)C1CCNCC1`, the Ki in assay [2] worked out at 3.3 nM; in assay [3], 1.1 nM.

On to `CC(C)CN(Cc1cc(Cl)ccc1Cl)C1CCNCC1`, for which the inhibition constant Ki turned out to be 5.5 nM in assay [2] and 2.1 nM in assay [3].

For the compound `FC(F)(F)OCCN(Cc1ccccc1C(F)(F)F)C1CCNCC1`, the inhibition in assay [1] is -8%. Moreover, the Ki was 51 nM in assay [2] and 17 nM in assay [3].

Regarding `Cc1ccc(CN(CC(C)C)C2CCNCC2)cc1`, the Ki stood at 69 nM in assay [2] and 0.99 nM in assay [3].

For `CC(C)CN(Cc1cc(C(F)(F)F)ccc1Cl)C1CCNCC1`, the inhibition constant (Ki) came out at 175 nM in assay [2] and 9.6 nM in assay [3].

As to `CC(C)CN(Cc1cccc(C#N)c1)C1CCNCC1`, the Ki worked out at 690 nM in assay [2], 0.48 nM in assay [3] and 201 nM in assay [4].

As for `COc1ccccc1CN(CC(C)C)C1CCNCC1`, in assay [1], the inhibition stood at 4%. For the same compound, the results for the Ki in assay [2] and in assay [3] were 145 nM and 15 nM, respectively.

As for `Cc1ccccc1CN(CC(C)C)C1CCNCC1`, the Ki in assay [2] worked out at 3.3 nM; in assay [3] it was 1.5 nM; in assay [4], 240 nM.

For `CN(Cc1ccccc1C(F)(F)F)C1CCNCC1`, the inhibition in assay [1] was 3%.

As for `CC(C)OCCN(Cc1ccc(F)cc1C(F)(F)F)C1CCNCC1`, the inhibition in assay [1] turned out to be 5%. Moreover, the Ki came to 9.7 nM in assay [2] and 3 nM in assay [3].

`CC(C)CN(Cc1cccc(F)c1)C1CCNCC1`: the Ki in assay [2] is 43 nM; in assay [4] it was 86.5 nM.

Take `CC(C)CN(Cc1ccc(C#N)cc1)C1CCNCC1`: the values for the Ki in assay [2] and in assay [3] were 190 nM and 0.28 nM, respectively.

On to `COc1ccc(F)cc1CN(CC(C)C)C1CCNCC1`, for which, in assay [1], the inhibition is -2%. Moreover, the inhibitory constant (Ki) in assay [2] was determined as 42.1 nM; in assay [3], 1.4 nM.

As for `CC(C)CN(Cc1cccc(C(F)(F)F)c1)C1CCNCC1`, the Ki in assay [2] is 255 nM; in assay [3] it was 0.26 nM.

For the compound `CC(C)CN(Cc1ccc(F)cc1F)C1CCNCC1`, the results for the Ki in assay [2], in assay [3] and in assay [4] were 20 nM, 3.1 nM and 580 nM, respectively.

Take `CC(C)CN(Cc1ccc(Cl)cc1Cl)C1CCNCC1`: the results for the Ki in assay [2], in assay [3] and in assay [4] were 2 nM, 0.96 nM and 230 nM, respectively.

In the case of `CC(C)CN(Cc1ccccc1C(F)(F)F)C1CCNCC1`, the Ki in assay [2] came out at 3.2 nM; in assay [3], 1.4 nM; in assay [4] it was 210 nM.

In the case of `CC(C)CN(Cc1ccccc1Cl)C1CCNCC1`, the figures for the Ki in assay [2], in assay [3] and in assay [4] were 1.4 nM, 1.6 nM and 83 nM, respectively.

Consider `CCCCN(Cc1ccccc1C(F)(F)F)C1CCNCC1`, for which the Ki was 5.1 nM in assay [2] and 1.5 nM in assay [3].

`CCC(CC)N(Cc1ccccc1C(F)(F)F)C1CCNCC1`: the Ki in assay [2] was determined as 86 nM; in assay [3], 6.8 nM.

With `CC(C)CN(Cc1ccccc1OC(F)(F)F)C1CCNCC1`, the Ki in assay [2] was found to be 7.1 nM; in assay [3] it was 2.2 nM.

On to `FC(F)(F)c1ccccc1CN(CC1CC1)C1CCNCC1`, for which the Ki in assay [2] was 6 nM; in assay [3], 1.5 nM.

Take `FC(F)(F)CN(Cc1ccccc1C(F)(F)F)C1CCNCC1`: the values for the inhibition constant Ki in assay [2] and in assay [3] were 33 nM and 4.6 nM, respectively.

With `Fc1ccc(CN(CC2CC2)C2CCNCC2)c(C(F)(F)F)c1` [listing 1 of 2 here], the Ki came out at 6.1 nM in assay [2] and 0.8 nM in assay [3].

As for `CC(C)CN(Cc1ccccc1)C1CCNCC1`, the Ki in assay [2] is 91 nM; in assay [3] it was 8.4 nM.

With `COCCCN(Cc1ccccc1C(F)(F)F)C1CCNCC1`, the inhibition in assay [1] was -8%. For the same compound, the Ki came out at 6.8 nM in assay [2] and 2.2 nM in assay [3].

Consider `N#CCCCN(Cc1ccc(F)cc1C(F)(F)F)C1CCNCC1`, for which the inhibition in assay [1] is 10%. In addition, the Ki in assay [2] was found to be 13.3 nM; in assay [3], 0.4 nM.

Take `CC(C)(O)CCN(Cc1ccc(F)cc1C(F)(F)F)C1CCNCC1`: in assay [1], the inhibition worked out at 1.3%. Besides, the affinity in assay [3], expressed as Ki, was 5 nM.

On to `CCN(Cc1ccccc1C(F)(F)F)C1CCNCC1`, for which the inhibition in assay [1] is -2%. Also, the Ki in assay [2] was found to be 61 nM; in assay [3], 8 nM.

With `CC(C)N(Cc1ccccc1C(F)(F)F)C1CCNCC1`, the values for the Ki in assay [2] and in assay [3] were 26 nM and 5.6 nM, respectively.

As to `CC(C)CN(Cc1cccc(C(F)(F)F)c1Cl)C1CCNCC1`, the figures for the Ki in assay [2] and in assay [3] were 420 nM and 0.48 nM, respectively.

Turning to `CC(C)CN(Cc1cc(F)ccc1C(F)(F)F)C1CCNCC1`, the results for the Ki in assay [2] and in assay [3] were 3.4 nM and 7.9 nM, respectively.

For the compound `Fc1ccc(CN(CC2CC2)C2CCNCC2)c(C(F)(F)F)c1` [listing 2 of 2 here], the Ki in assay [2] worked out at 6.5 nM; in assay [3], 0.4 nM.

For `OCCN(Cc1ccc(F)cc1C(F)(F)F)C1CCNCC1`, in assay [1], the inhibition is -7%. For the same compound, the values for the inhibitory constant (Ki) in assay [2] and in assay [3] were 95.9 nM and 3.1 nM, respectively.

For `CC(C)CN(Cc1ccc(C(F)(F)F)cc1)C1CCNCC1`, the Ki stood at 300 nM in assay [2] and 0.07 nM in assay [3].

Turning to `Fc1ccc(CN(CC2CCC2)C2CCNCC2)c(C(F)(F)F)c1`, the Ki in assay [2] is 3.1 nM; in assay [3], 2.5 nM.

With `FC(F)(F)c1ccccc1CN(C1CCCC1)C1CCNCC1`, the Ki in assay [2] was found to be 4.1 nM; in assay [3], 3.6 nM.

For `CC(C)CN(Cc1ccc(C(F)(F)F)cc1F)C1CCNCC1`, the Ki in assay [2] worked out at 2.2 nM; in assay [3] it was 5.8 nM; in assay [4], 120 nM.

Regarding `Cc1cccc(CN(CC(C)C)C2CCNCC2)c1`, the Ki in assay [2] came out at 150 nM; in assay [3], 2.2 nM; in assay [4], 98 nM.

Consider `CC(C)(C#N)CN(Cc1ccc(F)cc1C(F)(F)F)C1CCNCC1`, for which the Ki in assay [2] was 15.9 nM; in assay [3], 4.2 nM.

As to `CCCN(Cc1ccc(F)cc1C(F)(F)F)C1CCNCC1`, the Ki in assay [2] turned out to be 3.6 nM; in assay [3], 0.8 nM.
